Laboratory results published in ChEMBL document CHEMBL1201862, “PubChem BioAssay data set” (2004).
The source made the active and inactive calls.

How the values were obtained:
[1] = target: T1, Kappa-type opioid receptor (Homo sapiens, UniProt P41145); assay: SAR analysis of Antagonists of the Kappa Opioid Receptor (KOR) using an Image-Based Assay - Set 4. [Related pubchem assays (depositor defined):AID1777, AID1785]; format: functional
[2] = target: Delta-type opioid receptor (Homo sapiens, UniProt P41143); assay: SAR Analysis of Antagonists of the DOR Receptor using an Image-Based Assay - Set 3. [Related pubchem assays (depositor defined):AID1777, AID1785]; format: functional;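 further: U2OS cells expressing DOR1 and beta-arrestin GFP stimulated with 100 nM SNC80; imaging of GFP-tagged beta-arrestin moving into spots after receptor activation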
Delta-type opioid receptor, sequence (P41143 whole entry): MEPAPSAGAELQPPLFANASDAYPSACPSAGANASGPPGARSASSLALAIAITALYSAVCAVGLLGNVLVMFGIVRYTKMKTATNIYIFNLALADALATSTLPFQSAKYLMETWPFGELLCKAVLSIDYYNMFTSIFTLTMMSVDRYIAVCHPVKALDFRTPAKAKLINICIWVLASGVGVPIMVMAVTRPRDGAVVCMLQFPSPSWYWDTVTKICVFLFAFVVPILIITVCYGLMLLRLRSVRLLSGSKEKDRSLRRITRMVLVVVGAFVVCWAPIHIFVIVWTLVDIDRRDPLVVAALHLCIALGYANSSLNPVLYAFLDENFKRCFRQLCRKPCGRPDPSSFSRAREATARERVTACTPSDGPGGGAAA

Mu-type opioid receptor = Mu-type opioid receptor (Homo sapiens, UniProt P35372); assay: SAR Analysis of Antagonists of the MOR Receptor using an Image-Based Assay - Set 3. [Related pubchem assays (depositor defined):AID1777, AID1785, AID1786, AID1966, AID2133, AID2136, AID2284, AID2285, AID2420]; format: functional
Mu-type opioid receptor, sequence (P35372 whole entry): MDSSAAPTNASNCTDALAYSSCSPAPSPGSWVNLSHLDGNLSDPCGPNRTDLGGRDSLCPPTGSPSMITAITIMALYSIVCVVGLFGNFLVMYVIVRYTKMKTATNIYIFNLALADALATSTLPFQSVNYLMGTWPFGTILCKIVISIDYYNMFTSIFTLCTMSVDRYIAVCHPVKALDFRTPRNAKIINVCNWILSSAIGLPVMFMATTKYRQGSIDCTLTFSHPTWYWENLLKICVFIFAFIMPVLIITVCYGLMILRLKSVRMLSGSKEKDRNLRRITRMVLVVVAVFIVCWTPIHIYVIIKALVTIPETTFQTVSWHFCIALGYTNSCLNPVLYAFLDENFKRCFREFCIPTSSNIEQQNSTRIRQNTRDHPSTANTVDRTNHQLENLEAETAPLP

[3] = target: T1, Kappa-type opioid receptor; assay: SAR analysis of small molecule antagonists of the kappa opioid receptor via a luminescent beta-arrestin assay - Set 3. [Related pubchem assays (depositor defined):AID1777, AID1778, AID1785, AID1786, AID1966, AID2133, AID2136, AID2285, AID2495]; format: functional
[4] = inhibitors of intracellular T. cruzi replication, confirmation, NIH3T3 host cells, beta-gal luminescence (AID 2044); format: functional, cell-based;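 further: intracellular parasites grown in NIH/3T3 mouse fibroblasts as host cells; luminescent beta-galactosidase reporter signal from transgenic T. cruzi replicating inside host cells; inhibitors lower the luminescence signal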
[5] = target: T2, Calpain-2 catalytic subunit (Sus scrofa, UniProt P43367); assay: pig calpain II inhibitor potency, dose response, biochemical, fluorogenic peptide substrate (AID 1420); format: functional
T2 sequence (P43367 whole entry): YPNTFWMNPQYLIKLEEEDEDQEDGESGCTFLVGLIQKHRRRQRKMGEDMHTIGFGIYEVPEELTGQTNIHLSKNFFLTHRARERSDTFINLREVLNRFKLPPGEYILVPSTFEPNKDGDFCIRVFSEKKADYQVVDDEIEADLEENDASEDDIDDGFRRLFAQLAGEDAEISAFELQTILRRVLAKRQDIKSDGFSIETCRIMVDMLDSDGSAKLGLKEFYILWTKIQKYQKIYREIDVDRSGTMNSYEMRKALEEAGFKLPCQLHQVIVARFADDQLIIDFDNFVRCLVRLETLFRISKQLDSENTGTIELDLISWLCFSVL

[6] = cytotoxicity toward NIH3T3 fibroblasts, dose response, counter-screen, cell-based, ATP luminescence, mouse fibroblasts (AID 2010); format: functional;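 further: cells exposed to compound for about 90 hours before reading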
[7] = target: Neurotensin receptor type 1 (Homo sapiens, UniProt P30989); format: functional;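 further: Image-based confirmatory dose-response assay measuring agonist activity at NTR1; NTR1-expressing U2OS osteosarcoma cells imaged for beta-arrestin GFP spot formation; agonist potency where compounds increase beta-arrestin recruitment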
Neurotensin receptor type 1, sequence (P30989 whole entry, the tested form may be a part): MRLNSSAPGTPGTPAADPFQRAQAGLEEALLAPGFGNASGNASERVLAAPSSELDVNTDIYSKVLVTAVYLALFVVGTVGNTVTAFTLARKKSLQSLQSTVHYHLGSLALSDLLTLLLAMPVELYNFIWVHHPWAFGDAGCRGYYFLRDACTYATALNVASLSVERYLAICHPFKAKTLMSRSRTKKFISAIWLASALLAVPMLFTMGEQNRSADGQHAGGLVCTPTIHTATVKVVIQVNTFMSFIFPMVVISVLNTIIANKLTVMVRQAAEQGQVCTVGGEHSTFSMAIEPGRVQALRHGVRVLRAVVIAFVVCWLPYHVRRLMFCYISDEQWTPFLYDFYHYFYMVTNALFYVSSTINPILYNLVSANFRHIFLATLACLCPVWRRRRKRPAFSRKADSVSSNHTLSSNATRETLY

[8] = target: NACHT, LRR and PYD domains-containing protein 3 (Homo sapiens, UniProt Q96P20); assay: NALP3 inhibitors in yeast, dose response, luminescent (AID 488799); format: functional
[9] = cytotoxicity in HEK-293T cells, dose response, cytotoxicity control for TCR NF-kB inhibitor project, luminescence, T-cell screen hits (AID 489026); format: functional, cell-based;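 further: cells exposed to compound about 14 hours before the viability readout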
[10] = inhibition of K1F phage lysis, E. coli UTI89, bacterial capsule biogenesis inhibitors, alamar blue (AID 488966); format: functional
BJ [11] = assay: cytotoxicity toward BJ-TERT fibroblasts, dose response, cell-based, RAS-independent, luminescence (AID 1933); format: functional; settings: Homo sapiens
[12] = cytotoxicity toward DRD oncogenic fibroblasts, dose response, cell-based, non-viral oncogenic, luminescence (AID 1934); format: functional; settings: Homo sapiens
Beta Lactamase = Beta Lactamase (Pseudomonas aeruginosa, UniProt Q932Y6); assay: beta-lactamase reporter inhibitor potency, dose response, artefact control for TLR9-MyD88 binding inhibitor project, BLA reporter cells, FRET fluorescence (AID 588341); format: cell-based;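 further: cell based assay in CHO-K1 cells stably expressing beta-lactamase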
Beta Lactamase, sequence (Q932Y6 whole entry): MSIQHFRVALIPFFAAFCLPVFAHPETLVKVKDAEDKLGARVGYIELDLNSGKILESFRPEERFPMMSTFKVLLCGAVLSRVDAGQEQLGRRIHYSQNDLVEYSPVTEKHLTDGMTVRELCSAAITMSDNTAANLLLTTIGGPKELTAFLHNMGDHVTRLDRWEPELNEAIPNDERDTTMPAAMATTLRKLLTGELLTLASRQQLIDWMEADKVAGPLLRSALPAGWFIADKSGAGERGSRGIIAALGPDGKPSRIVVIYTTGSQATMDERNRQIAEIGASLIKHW

[13] = target: Sphingosine 1-phosphate receptor 1 (Homo sapiens, UniProt P21453); format: functional;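 further: Tango beta-arrestin reporter U2OS cells stimulated with S1P near its EC80; inhibitor potency meaning antagonism of receptor activation by the natural agonist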
Sphingosine 1-phosphate receptor 1, sequence (P21453 whole entry, the tested form may be a part): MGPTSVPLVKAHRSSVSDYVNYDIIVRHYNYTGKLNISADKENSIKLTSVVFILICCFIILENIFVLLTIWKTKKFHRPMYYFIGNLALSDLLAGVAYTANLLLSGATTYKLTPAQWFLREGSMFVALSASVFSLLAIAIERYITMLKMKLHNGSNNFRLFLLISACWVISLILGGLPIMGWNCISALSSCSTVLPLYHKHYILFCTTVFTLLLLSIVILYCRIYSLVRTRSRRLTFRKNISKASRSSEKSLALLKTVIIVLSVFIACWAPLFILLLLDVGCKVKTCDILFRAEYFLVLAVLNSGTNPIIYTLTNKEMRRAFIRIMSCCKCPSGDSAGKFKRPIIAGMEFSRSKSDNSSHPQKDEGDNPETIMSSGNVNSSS

CHO = assay: cytotoxicity in TLR9-MyD88 CHO cells, dose response, cytotoxicity control for TLR9-MyD88 binding inhibitor project, cell-based, luminescence (AID 588339); format: functional, hamster; settings: Cricetulus griseus;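 further: CHO cells stably coexpressing TLR9 and MyD88 fusions from primary screen; compound exposure lasted 48 hours before viability readout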
BJ [14] = assay: cytotoxicity toward BJ-TERT-LT-ST fibroblasts, dose response, cell-based, RAS-independent, luminescence (AID 1935); format: functional; settings: Homo sapiens;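 further: BJ fibroblasts immortalized with TERT plus LT and ST oncogenes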
Integrin alpha-4 = Integrin alpha-4 (Homo sapiens, UniProt P13612); assay: VLA-4 integrin allosteric ligands, SAR follow-up, cell-based, LIBS antibody binding, flow cytometry (AID 488791); format: functional
BJ [15] = assay: cells; format: functional, cell-based; settings: Homo sapiens
[16] = target: T3, Heat shock factor protein 1 (Mus musculus, UniProt P38532); assay: inhibition of MG132-induced HSE-luciferase signal, confirmation, cell-based, NIH3T3, luminescence, dose retest (AID 2382); format: functional;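 further: NIH3T3 fibroblasts with HSF1-driven luciferase reporter stressed by proteasome inhibitor MG132; luminescence from HSF1-driven luciferase expression after 8 hours of MG132 stress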
T3 sequence (P38532 whole entry): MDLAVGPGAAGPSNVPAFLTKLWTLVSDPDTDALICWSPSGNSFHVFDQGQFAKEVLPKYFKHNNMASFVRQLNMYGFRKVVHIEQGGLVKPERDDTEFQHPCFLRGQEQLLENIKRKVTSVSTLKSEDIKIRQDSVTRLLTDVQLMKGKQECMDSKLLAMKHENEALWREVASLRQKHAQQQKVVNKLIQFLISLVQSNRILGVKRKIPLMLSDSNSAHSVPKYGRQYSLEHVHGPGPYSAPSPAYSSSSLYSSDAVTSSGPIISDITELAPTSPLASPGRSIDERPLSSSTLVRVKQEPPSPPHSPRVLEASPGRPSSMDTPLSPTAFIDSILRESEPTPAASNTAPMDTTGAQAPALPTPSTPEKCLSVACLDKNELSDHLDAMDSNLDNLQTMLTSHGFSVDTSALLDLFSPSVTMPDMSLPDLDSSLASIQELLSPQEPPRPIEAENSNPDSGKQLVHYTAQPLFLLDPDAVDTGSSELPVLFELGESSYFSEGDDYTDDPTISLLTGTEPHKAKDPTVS

[17] = target: T4, Sphingosine 1-phosphate receptor 4 (Homo sapiens, UniProt O95977); assay: Fluorescence dose response cell-based high throughput screening assay for antagonists of the Sphingosine 1-Phosphate Receptor 4 (S1P4). [Related pubchem assays: 1524 (Confirmation in triplicates.), 1510 (Primary screen.)]; format: functional
T4 sequence (O95977 whole entry): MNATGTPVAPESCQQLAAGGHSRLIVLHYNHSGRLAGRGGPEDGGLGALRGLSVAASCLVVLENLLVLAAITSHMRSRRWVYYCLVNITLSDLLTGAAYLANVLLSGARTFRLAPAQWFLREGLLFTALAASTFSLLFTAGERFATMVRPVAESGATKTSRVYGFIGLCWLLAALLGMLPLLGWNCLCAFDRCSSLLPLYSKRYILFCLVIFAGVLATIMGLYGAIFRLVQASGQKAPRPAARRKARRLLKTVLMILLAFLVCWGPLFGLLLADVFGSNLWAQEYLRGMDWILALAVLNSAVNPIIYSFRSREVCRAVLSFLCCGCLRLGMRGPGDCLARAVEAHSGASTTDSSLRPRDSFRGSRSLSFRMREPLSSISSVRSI

[18] = target: Low molecular weight phosphotyrosine protein phosphatase (Homo sapiens, UniProt P24666); format: functional; settings: read-out: IC50_Mean;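 further: Dose-response confirmation assay measuring inhibition of LMPTP enzyme activity by fluorescence intensity read-out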
Low molecular weight phosphotyrosine protein phosphatase, sequence (P24666 whole entry): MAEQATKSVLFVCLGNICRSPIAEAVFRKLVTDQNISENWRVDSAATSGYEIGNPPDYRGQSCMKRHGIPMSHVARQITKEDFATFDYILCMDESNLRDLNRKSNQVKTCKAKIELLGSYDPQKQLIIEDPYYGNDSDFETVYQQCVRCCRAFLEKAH

[19] = target: T5, Tyrosine-protein phosphatase non-receptor type 7 (Homo sapiens, UniProt P35236); assay: Dose Response confirmation of compounds that inhibit HePTP. [Related pubchem assays (depositor defined):AID1059, AID1661, AID2085]; format: functional
T5 sequence (P35236 whole entry): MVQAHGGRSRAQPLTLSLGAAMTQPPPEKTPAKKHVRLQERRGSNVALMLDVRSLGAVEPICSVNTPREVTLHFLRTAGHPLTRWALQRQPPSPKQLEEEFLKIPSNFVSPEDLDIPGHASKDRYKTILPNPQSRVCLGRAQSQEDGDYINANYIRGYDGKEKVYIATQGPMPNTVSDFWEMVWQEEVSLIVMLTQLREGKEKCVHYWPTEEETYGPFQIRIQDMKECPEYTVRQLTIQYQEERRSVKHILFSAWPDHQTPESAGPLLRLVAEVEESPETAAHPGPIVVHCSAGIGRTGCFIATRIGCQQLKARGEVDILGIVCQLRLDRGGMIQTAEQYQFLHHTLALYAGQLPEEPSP

[20] = target: Dual specificity protein phosphatase 3 (Homo sapiens, UniProt P51452); assay: Dose Response Confirmation of compounds that inhibit VHR1 in Fluorescent Assay. [Related pubchem assays (depositor defined):AID1661, AID1878]; format: functional
Dual specificity protein phosphatase 3, sequence (P51452 whole entry): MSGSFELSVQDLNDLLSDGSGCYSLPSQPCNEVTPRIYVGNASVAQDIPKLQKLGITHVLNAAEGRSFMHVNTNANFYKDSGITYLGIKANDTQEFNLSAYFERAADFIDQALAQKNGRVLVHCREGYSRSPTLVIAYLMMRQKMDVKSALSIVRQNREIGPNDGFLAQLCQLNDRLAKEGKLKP

Vero [21] = assay: West Nile virus CPE inhibition, SAR follow-up, cell-based, synthesized analogs (AID 2238); format: functional; settings: Chlorocebus sabaeus
Vero [22] = assay: cytotoxicity of synthesized analogs in Vero 76, SAR follow-up, cytotoxicity control for West Nile virus antiviral project, Vero 76 cells (AID 2414); format: functional; settings: Chlorocebus sabaeus
Vero [23] = assay: cytotoxicity of synthesized analogs in Vero cells, SAR follow-up, cytotoxicity control for West Nile virus antiviral project, cell-based, set II (AID 2402); format: functional; settings: Chlorocebus sabaeus
Vero [24] = assay: Vero E6 cell cytotoxicity, SAR follow-up, cytotoxicity control for West Nile virus antiviral project, synthesized analogs (AID 2244); format: functional; settings: Chlorocebus sabaeus
[25] = target: T1, Kappa-type opioid receptor; assay: SAR analysis of small molecule antagonists of the kappa opioid receptor via a luminescent beta-arrestin assay - Set 4. [Related pubchem assays (depositor defined):AID1777, AID1778, AID1785, AID1786, AID1966, AID2133, AID2136, AID2285]; format: functional
[26] = target: T1, Kappa-type opioid receptor; assay: SAR analysis of small molecule antagonists of the kappa opioid receptor via a luminescent beta-arrestin assay - Set 6. [Related pubchem assays (depositor defined):AID1777, AID1778, AID1785, AID1786, AID1966, AID2133, AID2136, AID2285]; format: functional
Coagulation factor XII = target: T6, Coagulation factor XII (Homo sapiens, UniProt P00748); assay: FXIIa inhibitor potency, concentration-response, biochemical (AID 716); format: functional
T6 sequence (P00748 whole entry): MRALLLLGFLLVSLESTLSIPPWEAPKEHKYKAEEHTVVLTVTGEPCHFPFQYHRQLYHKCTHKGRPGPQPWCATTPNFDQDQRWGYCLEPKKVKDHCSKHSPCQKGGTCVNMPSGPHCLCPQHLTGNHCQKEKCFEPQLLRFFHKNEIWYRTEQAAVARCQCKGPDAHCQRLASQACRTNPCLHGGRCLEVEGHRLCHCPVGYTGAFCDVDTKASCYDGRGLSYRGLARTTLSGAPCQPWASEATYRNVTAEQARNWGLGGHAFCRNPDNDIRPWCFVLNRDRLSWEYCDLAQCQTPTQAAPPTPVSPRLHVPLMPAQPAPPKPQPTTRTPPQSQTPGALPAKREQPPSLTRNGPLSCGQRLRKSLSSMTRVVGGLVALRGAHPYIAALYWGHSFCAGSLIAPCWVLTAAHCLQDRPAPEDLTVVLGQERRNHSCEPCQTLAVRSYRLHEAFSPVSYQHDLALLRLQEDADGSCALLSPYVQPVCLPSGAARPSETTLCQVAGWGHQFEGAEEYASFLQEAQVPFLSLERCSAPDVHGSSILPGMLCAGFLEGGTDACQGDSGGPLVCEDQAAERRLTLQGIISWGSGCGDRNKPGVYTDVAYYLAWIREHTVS

[27] = target: Voltage-dependent T-type calcium channel subunit alpha-1H (Homo sapiens, UniProt O95180); assay: Cav3.2 T-type channel inhibitors, cell-based, synthetic library set 1, calcium flux (AID 493022); format: functional
Voltage-dependent T-type calcium channel subunit alpha-1H, sequence (O95180 whole entry): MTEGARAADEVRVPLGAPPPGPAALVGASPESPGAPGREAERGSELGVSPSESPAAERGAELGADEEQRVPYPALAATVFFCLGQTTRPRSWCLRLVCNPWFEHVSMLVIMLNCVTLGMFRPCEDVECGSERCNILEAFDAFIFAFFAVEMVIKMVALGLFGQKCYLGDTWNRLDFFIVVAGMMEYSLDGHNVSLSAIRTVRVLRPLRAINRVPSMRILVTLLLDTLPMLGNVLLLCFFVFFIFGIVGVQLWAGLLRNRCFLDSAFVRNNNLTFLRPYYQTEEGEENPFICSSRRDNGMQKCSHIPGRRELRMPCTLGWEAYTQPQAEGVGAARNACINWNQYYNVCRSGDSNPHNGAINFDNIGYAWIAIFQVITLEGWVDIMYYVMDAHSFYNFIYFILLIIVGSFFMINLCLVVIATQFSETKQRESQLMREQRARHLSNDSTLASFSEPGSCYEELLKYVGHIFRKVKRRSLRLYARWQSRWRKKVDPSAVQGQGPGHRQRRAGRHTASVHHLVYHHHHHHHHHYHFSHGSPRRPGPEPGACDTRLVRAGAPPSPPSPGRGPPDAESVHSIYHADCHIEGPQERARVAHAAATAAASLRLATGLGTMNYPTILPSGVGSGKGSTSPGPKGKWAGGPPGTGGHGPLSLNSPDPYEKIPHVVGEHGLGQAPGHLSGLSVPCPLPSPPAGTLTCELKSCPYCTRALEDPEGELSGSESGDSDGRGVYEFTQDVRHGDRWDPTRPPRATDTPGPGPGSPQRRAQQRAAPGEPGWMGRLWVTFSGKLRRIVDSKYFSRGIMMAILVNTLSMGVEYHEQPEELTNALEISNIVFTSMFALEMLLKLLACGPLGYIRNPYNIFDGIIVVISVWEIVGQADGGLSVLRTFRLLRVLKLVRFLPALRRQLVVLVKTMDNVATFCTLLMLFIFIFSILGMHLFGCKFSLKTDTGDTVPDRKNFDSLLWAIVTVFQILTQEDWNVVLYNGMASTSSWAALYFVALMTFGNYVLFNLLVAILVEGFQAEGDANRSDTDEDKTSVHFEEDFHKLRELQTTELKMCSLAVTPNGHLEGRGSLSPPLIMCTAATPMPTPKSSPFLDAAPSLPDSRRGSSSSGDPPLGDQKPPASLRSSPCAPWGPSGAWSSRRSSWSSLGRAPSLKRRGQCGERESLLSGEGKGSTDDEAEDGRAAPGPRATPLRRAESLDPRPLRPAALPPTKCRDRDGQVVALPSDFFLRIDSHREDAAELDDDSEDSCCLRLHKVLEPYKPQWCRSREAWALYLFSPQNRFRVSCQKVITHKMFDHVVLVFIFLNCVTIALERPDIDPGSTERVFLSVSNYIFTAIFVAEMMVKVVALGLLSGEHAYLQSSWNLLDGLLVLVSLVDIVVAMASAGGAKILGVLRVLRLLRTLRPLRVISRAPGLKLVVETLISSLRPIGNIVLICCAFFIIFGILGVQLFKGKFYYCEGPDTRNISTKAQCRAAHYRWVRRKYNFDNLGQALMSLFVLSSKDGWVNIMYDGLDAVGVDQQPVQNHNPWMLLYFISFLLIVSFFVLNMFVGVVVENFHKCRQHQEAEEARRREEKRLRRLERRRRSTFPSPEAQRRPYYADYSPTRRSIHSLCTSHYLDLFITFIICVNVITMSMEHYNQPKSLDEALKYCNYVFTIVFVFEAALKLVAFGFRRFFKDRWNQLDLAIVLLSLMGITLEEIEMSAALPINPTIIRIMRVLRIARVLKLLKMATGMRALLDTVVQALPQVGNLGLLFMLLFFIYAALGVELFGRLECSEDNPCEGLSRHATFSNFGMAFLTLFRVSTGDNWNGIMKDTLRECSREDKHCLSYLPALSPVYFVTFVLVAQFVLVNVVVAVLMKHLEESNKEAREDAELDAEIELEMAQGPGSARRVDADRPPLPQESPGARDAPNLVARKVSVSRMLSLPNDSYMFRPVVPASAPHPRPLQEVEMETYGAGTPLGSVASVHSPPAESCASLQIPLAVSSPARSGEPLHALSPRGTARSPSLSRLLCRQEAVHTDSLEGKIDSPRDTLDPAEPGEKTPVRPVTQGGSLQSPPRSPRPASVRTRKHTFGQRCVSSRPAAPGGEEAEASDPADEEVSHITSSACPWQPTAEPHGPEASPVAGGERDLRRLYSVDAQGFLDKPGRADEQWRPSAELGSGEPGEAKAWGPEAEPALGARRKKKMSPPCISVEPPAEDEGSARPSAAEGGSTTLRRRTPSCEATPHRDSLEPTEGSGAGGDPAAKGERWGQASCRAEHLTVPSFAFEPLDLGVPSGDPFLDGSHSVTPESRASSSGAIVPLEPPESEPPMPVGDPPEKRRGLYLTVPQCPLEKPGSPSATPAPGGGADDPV

T1 sequence (P41145 whole entry): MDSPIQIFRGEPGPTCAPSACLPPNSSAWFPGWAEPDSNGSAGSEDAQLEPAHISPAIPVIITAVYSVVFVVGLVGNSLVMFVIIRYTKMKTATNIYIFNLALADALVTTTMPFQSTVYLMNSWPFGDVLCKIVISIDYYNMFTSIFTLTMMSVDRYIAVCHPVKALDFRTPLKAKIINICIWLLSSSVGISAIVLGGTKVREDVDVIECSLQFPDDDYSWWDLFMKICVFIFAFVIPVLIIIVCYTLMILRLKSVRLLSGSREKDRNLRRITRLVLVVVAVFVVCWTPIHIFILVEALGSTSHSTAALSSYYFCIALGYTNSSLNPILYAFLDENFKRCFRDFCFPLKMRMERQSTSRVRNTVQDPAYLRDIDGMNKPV

## O=C(Cn1c(=O)c2cccn2c2cc(Br)cnc21)NCCCN1CCN(c2ccc(Cl)cc2)CC1
[1]
  IC50: > 32 µM (inactive)
[2]
  IC50: > 32 µM (inactive)
Mu-type opioid receptor
  IC50: 5.32 µM (active)
[3]
  IC50: > 20 µM (inactive)

## CCCCCCCCn1c2c(c(=N)c3ccccc31)CCC2
[4]
  EC50: < 0.1 µM (active)
[5]
  IC50: 7.78 µM (not active)
cells
  EC50: 0.014 µM (active)
[6]
  EC50: 8.28 µM (active)
[7]
  EC50: 17.7 µM (active)
[8]
  IC50: 11.9 µM (active)
[9]
  IC50: 59.4 µM (inactive)

## OC(CNc1ccnc2cc(Cl)ccc12)CNC1CCCCC1 (stereo unspecified)
[10]
  IC50: > 150 µM (active)

## CCOC(=O)COc1ccccc1/C=C\[N+](=O)[O-]
BJ [11]
  EC50: 3.48 µM (inconclusive)
[12]
  EC50: 4.76 µM (active)
Beta Lactamase
  IC50: > 49.7 µM (inactive)
[13]
  IC50: 3.42 µM (active)
CHO
  IC50: 1.92 µM (active)
BJ [14]
  EC50: 3.99 µM (inconclusive)
Integrin alpha-4
  EC50: 0.335 µM (active)
BJ [15]
  EC50: 26.7 µM (active)
[16]
  EC50: 4.03 µM (active)
[17]
  IC50: 0.962 µM (active)

## O=C(CSc1ccc2ccccc2n1)Nc1nsc(-c2ccc(Cl)cc2)n1
[18]
  IC50: 11.7 µM (active)
[19]
  IC50: 0.931 µM (active)
[20]
  IC50: 6.74 µM (active)

## O=C(CSc1nc2ccccc2c(=O)n1-c1ccc(F)c(Cl)c1)Nc1ccc2c(c1)CCC2
Vero [21]
  IC50: 19.3 µM (active)
Vero [22]
  CC50: > 66.6 µM (active)
Vero [23]
  CC50: > 100 µM (active)
Vero [24]
  CC50: > 40 µM (active)

## Cc1ccc(S(=O)(=O)NCc2ccc(C(=O)NCCCN3CCN(c4ccccc4)CC3)cc2)cc1
[1]
  IC50: > 32 µM (inactive)
[2]
  IC50: > 32 µM (inactive)
[25]
  IC50: > 20 µM (inactive)
Mu-type opioid receptor
  IC50: 0.469 µM (active)
[26]
  IC50: > 20 µM (inactive)

## O=C(c1cccc(F)c1)n1nnc2ccccc21
Coagulation factor XII
  IC50: 10.5 µM (active)

## O=C(COc1ccc(F)cc1Cl)Nc1nnc(-c2ccc(F)cc2)o1
[27]
  EC50: 1.9 µM (active)
